Laboratory results published in patent US20250188030A1, “Biphenyl and Phenylpyridine Compounds” (Pfizer Inc., priority 2023, published 2025).
Read-outs that look alike come from different tables or passages of the source.

Experiments:
H3K9AC (HT1080 cells) = assay: H3K9AC Sandwich ELISA Assay in HT1080 cells (KAT2A primary cell-based screening assay); set-up: species or system Human
Summary of the method: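 Acetylated H3K9 quantified by luminescent sandwich ELISA (total H3 capture, H3K9ac detection) on HCl lysates of HT1080 cells. Cells had 24 h compound exposure at 37 °C, top concentration 10 µM, 10-point 3-fold series, 0.1% DMSO; IC50 from four-parameter fitting.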

MM.1S cells = assay: MM1.S 10 Day Proliferation Assay (CellTiter-Glo); type: cell-based, Human
Summary of the method: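 MM.1S cells, 500/well in ultra-low-attachment plates, were pre-incubated 16 h, then exposed to a 10-point 1:3 dilution series (top 10 μM final, 0.1% DMSO) for 10 days at 37 °C, with compound-containing medium refreshed at day 5. Viability was read by CellTiter-Glo luminescence; IC50 came from four-parameter fit.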

KAT2A = KAT2A (Homo sapiens (Human), UniProt Q92830); assay: KAT2A acetyltransferase biochemical assay (RapidFire mass spectrometry, AcCoA to CoA)
Sequence of KAT2A (Q92830 whole entry): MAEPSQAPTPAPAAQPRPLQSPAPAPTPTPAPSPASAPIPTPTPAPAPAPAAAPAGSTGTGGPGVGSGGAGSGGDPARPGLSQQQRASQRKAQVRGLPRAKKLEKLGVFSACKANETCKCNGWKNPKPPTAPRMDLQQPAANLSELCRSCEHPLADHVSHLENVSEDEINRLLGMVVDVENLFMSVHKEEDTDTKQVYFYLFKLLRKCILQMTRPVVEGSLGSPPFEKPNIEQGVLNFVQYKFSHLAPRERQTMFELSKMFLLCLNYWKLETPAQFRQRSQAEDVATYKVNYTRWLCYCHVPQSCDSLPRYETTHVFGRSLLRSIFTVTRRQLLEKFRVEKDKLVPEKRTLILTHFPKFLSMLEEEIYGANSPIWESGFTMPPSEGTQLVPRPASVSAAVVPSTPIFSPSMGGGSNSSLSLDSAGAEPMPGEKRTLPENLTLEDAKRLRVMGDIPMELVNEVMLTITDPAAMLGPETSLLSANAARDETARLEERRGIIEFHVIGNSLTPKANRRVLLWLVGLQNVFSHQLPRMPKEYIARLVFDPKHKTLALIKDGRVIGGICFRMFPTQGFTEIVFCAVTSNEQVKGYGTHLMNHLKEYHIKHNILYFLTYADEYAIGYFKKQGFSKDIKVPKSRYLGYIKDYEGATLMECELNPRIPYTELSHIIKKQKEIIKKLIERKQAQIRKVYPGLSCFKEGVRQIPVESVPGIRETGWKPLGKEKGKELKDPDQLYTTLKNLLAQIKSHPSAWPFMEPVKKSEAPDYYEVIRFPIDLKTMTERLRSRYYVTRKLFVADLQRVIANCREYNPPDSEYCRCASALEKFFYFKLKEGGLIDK
Method: • A) Compound preparation • 1) Prepare 10 mM stock solutions in 100% DMSO from solid material. • 2) Serial dilute 10 mM, 1 mM, 0.1 or 0.01 mM compound stocks 3-fold in 100% DMSO for 11-point dose response. • B) Reagent preparation • 1) Prepare 1×assay buffer containing 40 mM bis tris propane pH 8.0, 10 mM NaCl, 0.5 mM EDTA, and 0.002% Tween-20. • 2) Dilute Histone peptide (CPC Scientific) and KAT enzyme together in assay buffer to 1.25×. • 3) Dilute AcCoA (Sigma) in assay buffer to 5×. • C) Enzyme reaction • 1) Final reaction conditions for each KAT assay in a 100ul assay reaction volume: • i) KAT2A 0.5 nM, 1 uM AcCoA, 5 uM H3 1-21 peptide, 90-minute reaction • ii) KAT2B 0.5 nM, 1 uM AcCoA, 5 uM H3 1-21 peptide, 90-minute reaction • 2) Add 2 ul of diluted compound series to the assay plate (96-well round-bottom polypropylene plates) or 2 ul of DMSO for control wells. • 3) Add 11 μL of 10% formic acid to 100% effect (HPE) control wells. • 4) Add 80 ul of 1.25× Histone peptide/KAT mix to the assay plate via Multidrop Combi (ThermoFisher). Incubate 15 min at room temperature. • 5) Add 20 ul of 5× AcCoA to the assay plate via Multidrop Combi. • 6) Stop the reaction after the indicated time with the addition of 11 ul of 10% formic acid via Multidrop Combi. • 7) Each reaction was analyzed using Rapid Fire mass spectrometry platform.
KAT enzymes were expressed using a baculovirus expression system and purified at Pfizer, La Jolla. […] Acetyl coenzyme A was purchased from Sigma-Aldrich (St. Louis, MO). All other biochemical reagents were purchased from Sigma-Aldrich or ThermoFisher Scientific (Waltham, MA).
KAT assays were performed at room temperature in assay buffer containing 1 μM AcCoA, 5 μM histone peptide, 40 mM bis tris propane pH 8.0, 10 mM NaCl, 0.5 mM EDTA 0.002% Tween-20. 80 ul of 1.25× Histone peptide/enzyme mix was added to a 96-well round-bottom polypropylene assay plate containing 2 ul of serially diluted test compound in 100% dimethyl sulfoxide (DMSO). To start the reaction, 20 ul of 5× AcCoA solution was added to the assay plate. KAT assays were terminated after 90 minutes with the addition of 11 ul of 10% formic acid. All assays used histone H3 (1-21) peptide. The final enzyme concentration for each KAT was as follows: KAT2A, 0.5 nM; KAT2B, 0.5 nM. […] Each reaction was analyzed using Rapid Fire mass spectrometry platform. This methodology leverages an Agilent 6495 triple quadrupole (QQQ) mass spectrometer coupled to a RapidFire model 365 to specifically capture and measure KAT2 acetyltransferase activity, converting AcCoA (substrate) to CoA (product).
Area under the curve (AUC) for both substrate and product peaks was determined for KAT2 at M.W. 809.6 [Substrate+H]+ and 767.3 [Product+H]+ with a +/−1 Da tolerance, respectively. Acetyltransferase activity (% of DMSO control) was calculated by: ((AUCProduct/AUCsubstrate)-AUCHPE)/(AUCZPE-AUCHPE))*100. Ki values were determined by fitting the % acetyltransferase activity at each inhibitor concentration to the Morrison equation for tightbinding competitive inhibitors using Pfizer proprietary curve fitting software.
To determine the inhibition of KAT enzymatic activity by test compounds, assay reactions were conducted in a volume of 100 μL in 96-well round-bottom polypropylene assay plate. The reactions were performed in assay buffer (40 mM bis tris propane, pH 8, 10 mM NaCl, 0.5 mM EDTA, 0.002% Tween-20).

KAT2B = KAT2B (Homo sapiens (Human), UniProt Q92831); assay: KAT2B acetyltransferase biochemical assay (RapidFire mass spectrometry, AcCoA to CoA)
Sequence of KAT2B (Q92831 2-832): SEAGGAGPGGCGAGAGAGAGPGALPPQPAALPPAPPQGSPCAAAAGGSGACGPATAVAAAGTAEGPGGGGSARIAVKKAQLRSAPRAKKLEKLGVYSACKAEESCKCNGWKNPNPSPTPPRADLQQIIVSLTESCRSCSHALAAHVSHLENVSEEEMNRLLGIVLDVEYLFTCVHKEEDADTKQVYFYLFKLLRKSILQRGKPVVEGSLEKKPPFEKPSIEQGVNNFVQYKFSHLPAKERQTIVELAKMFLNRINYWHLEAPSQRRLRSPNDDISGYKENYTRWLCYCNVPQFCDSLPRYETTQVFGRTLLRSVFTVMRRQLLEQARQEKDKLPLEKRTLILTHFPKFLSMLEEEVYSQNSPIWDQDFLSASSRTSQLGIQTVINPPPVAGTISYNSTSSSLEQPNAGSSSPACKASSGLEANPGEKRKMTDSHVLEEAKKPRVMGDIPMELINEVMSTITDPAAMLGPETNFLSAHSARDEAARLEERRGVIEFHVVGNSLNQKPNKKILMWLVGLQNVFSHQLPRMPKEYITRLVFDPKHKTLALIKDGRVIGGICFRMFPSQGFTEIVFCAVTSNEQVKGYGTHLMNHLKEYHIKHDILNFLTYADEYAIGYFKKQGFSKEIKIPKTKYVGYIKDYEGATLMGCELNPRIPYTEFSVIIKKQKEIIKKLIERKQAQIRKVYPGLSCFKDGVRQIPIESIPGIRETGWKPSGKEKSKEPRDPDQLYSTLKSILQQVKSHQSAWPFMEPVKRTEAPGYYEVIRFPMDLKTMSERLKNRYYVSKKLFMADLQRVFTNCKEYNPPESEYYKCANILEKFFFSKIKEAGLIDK

[1] = Homo sapiens, HT-1080, H3K9AC sandwich ELISA
[2] = read-out: KAT2A Ki at 1 μM AcCoA, 5 μM H3 1-21 peptide, 0.5 nM KAT2A, 90-minute reaction
[3] = read-out: KAT2B Ki at 1 μM AcCoA, 1 μM AcCoA, 5 μM H3 1-21 peptide, 0.5 nM KAT2B, 90-minute reaction
[4] = KAT2A Ki at 1 μM AcCoA, 5 μM H3 1-21 peptide, 0.5 nM KAT2A, 90-minute reaction

| Compound | IC50 (H3K9AC (HT1080 cells); [1]) [nM] | IC50 (MM.1S cells; Homo sapiens, MM1.S, 240 h) [nM] | Ki (KAT2A; [2]) [nM] | Ki (KAT2B; [3]) [nM] | IC50 (H3K9AC (HT1080 cells); H3K9AC sandwich ELISA) [nM] | IC50 (MM.1S cells) [nM] | Ki (KAT2A; [4]) [nM] | Ki (KAT2B) [nM] |
| --- | --- | --- | --- | --- | --- | --- | --- | --- |
| CN(C)S(=O)(=O)NC(=O)C(C)(C)c1ccc(O[C@@H]2CC[C@@H](NC(=O)[C@@]3(F)CNC(C)(C)C3)C2)c(-c2cccc(F)c2C2CCC2)c1 (single isomer, unassigned) [Example C9] | 6.96 | 13.7 | 0.06 | 0.17 | – | – | – | – |
| CC(C)(C(=O)NS(=O)(=O)C1(C)CC1)c1ccc(O[C@@H]2CC[C@@H](NC(=O)[C@@]3(F)CNC4(CCC4)C3)C2)c(-c2cccc(F)c2C2CC2)c1 (single isomer, unassigned) [Example C21] | – | 13.7 | 0.09 | 0.11 | 1.11 | – | – | – |
| CC1(C)CNC[C@](F)(C(=O)N[C@@H]2CC[C@@H](Oc3ccc(C(C)(C)C(=O)O)cc3-c3cccc(F)c3C3CCC3)C2)C1 (single isomer, unassigned) [Example A16] | – | 144 | 1.39 | 2.43 | 13.4 | – | – | – |
| CCc1c(F)cccc1-c1cc(C(C)(C)C(=O)NS(C)(=O)=O)ccc1O[C@@H]1CC[C@@H](NC(=O)[C@]2(F)CNC3(CCC3)C2)C1 (single isomer, unassigned) [Example C12] | 11 | 89.6 | 0.5 | 0.93 | – | – | – | – |
| CCS(=O)(=O)NC(=O)C(C)(C)c1ccc(O[C@@H]2CC[C@@H](NC(=O)[C@@]3(F)CNC(C)(C)C3)C2)c(-c2cccc(F)c2C2CCC2)c1 (single isomer, unassigned) [Example B13] | – | – | 0.14 | 0.35 | 1.96 | 38.8 | – | – |
| CC1(C)CNCC(F)(C(=O)N[C@@H]2CC[C@@H](Oc3ccc(C(C)(C)C(=O)NS(=O)(=O)C4CC4)cc3-c3cccc(F)c3C3CCC3)C2)C1 (single isomer, unassigned) [Example B28] | 2.7 | 5 | 0.14 | 0.19 | – | – | – | – |
| CC(C)(C(=O)O)c1ccc(O[C@@H]2CC[C@@H](NC(=O)[C@]3(F)CNC4(CCCC4)C3)C2)c(-c2cccc(F)c2C2CCC2)c1 (single isomer, unassigned) [Example A6] | 7.67 | 92.4 | 0.54 | 1.21 | – | – | – | – |
| CCc1c(F)cccc1-c1cc(C(C)(C)C(=O)NS(=O)(=O)CC)ccc1O[C@@H]1CC[C@@H](NC(=O)[C@@]2(F)CNC3(CCCC3)C2)C1 (single isomer, unassigned) [Example C24] | 2.77 | 9.83 | 0.34 | 0.22 | – | – | – | – |
| CCS(=O)(=O)NC(=O)C(C)(C)c1ccc(O[C@@H]2CC[C@@H](NC(=O)C3(F)CNC4(CCC4)C3)C2)c(-c2cccc(F)c2C2CCC2)c1 (single isomer, unassigned) [Example B2] | – | 7.51 | – | – | 3.14 | – | 0.13 | 0.13 |
| CCc1c(F)cccc1-c1cc(C(C)(C)C(=O)NS(=O)(=O)C(C)C)ccc1O[C@@H]1CC[C@@H](NC(=O)[C@@]2(F)CNC3(CCC3)C2)C1 [Example C18, (7S)-N-[(1R,3R)-3-({2′-ethyl-3′-fluoro-5-[2-methyl-1-oxo-1-(propane-2-sulfonamido)propan-2-yl][1,1′-biphenyl]-2-yl}oxy)cyclopentyl]-7-fluoro-5-azaspiro[3.4]octane-7-carboxamide] | 2.34 | 30.6 | 0.1 | 0.31 | – | – | – | – |

Other lines, results leading:

| IC50 (H3K9AC (HT1080 cells); [1]) [nM] | IC50 (MM.1S cells; Homo sapiens, MM1.S, 240 h) [nM] | Ki (KAT2A; [2]) [nM] | Ki (KAT2B; [3]) [nM] | IC50 (H3K9AC (HT1080 cells); H3K9AC sandwich ELISA) [nM] | IC50 (MM.1S cells) [nM] | Ki (KAT2A; [4]) [nM] | Ki (KAT2B) [nM] | Compound |
| --- | --- | --- | --- | --- | --- | --- | --- | --- |
| – | 52 | 0.27 | 0.49 | 19.5 | – | – | – | Cn1cc(-c2ccc(O[C@@H]3CC[C@@H](NC(=O)[C@]4(F)CNC5(CCC5)C4)C3)c(-c3cccc(F)c3C3CCC3)c2)c(C(=O)O)n1 (single isomer, unassigned) [Example J10] |
| 6.43 | 123 | 20.6 | 20.3 | – | – | – | – | CN1CC(C)(C)C[C@H]1C(=O)N[C@@H]1CC[C@@H](Oc2cccc(C(=O)NS(=O)(=O)N3CC(F)C3)c2-c2cccc(F)c2C2CCC2)C1 (atropisomer, axis not shown) [Example I12, N-[(1R,3R)-3-({(1ψ)-2′-cyclobutyl-3′-fluoro-6-[(3-fluoroazetidine-1-sulfonyl)carbamoyl][1,1′-biphenyl]-2-yl}oxy)cyclopentyl]-1,4,4-trimethyl-L-prolinamide] |
| – | 20.6 | 0.26 | 0.46 | 3.88 | – | – | – | Cn1cc(-c2ccc(O[C@@H]3CC[C@@H](NC(=O)[C@]4(F)CNC5(CCC5)C4)C3)c(-c3cccc(F)c3C3CCC3)c2)c(C(C)(C)C(=O)O)n1 (single isomer, unassigned) [Example J7] |
| 39.2 | 193 | 9.48 | 22.2 | – | – | – | – | CN1CC(C)(C)C[C@H]1C(=O)N[C@@H]1CC[C@@H](Oc2ccc(CC(=O)O)cc2-c2cccc(F)c2C2CCC2)C1 [Example D10, [2′-cyclobutyl-3′-fluoro-6-({(1R,3R)-3-[(1,4,4-trimethyl-L-prolyl)amino]cyclopentyl}oxy)[1,1′-biphenyl]-3-yl]acetic acid] |
| 8.38 | 15.9 | 0.08 | 0.21 | – | – | – | – | CN1CC(C)(C)C[C@H]1C(=O)N[C@@H]1CC[C@@H](Oc2ccc(C(C)(C)C(=O)NS(=O)(=O)N(C)C)cc2-c2cccc(F)c2C2CCC2)C1 [Example E4, N-{(1R,3R)-3-[(2′-cyclobutyl-5-{1-[(dimethylsulfamoyl)amino]-2-methyl-1-oxopropan-2-yl}-3′-fluoro[1,1′-biphenyl]-2-yl)oxy]cyclopentyl}-1,4,4-trimethyl-L-prolinamide] |
| 5.06 | 31.5 | 0.15 | 0.38 | – | – | – | – | CN1CC(C)(C)C[C@H]1C(=O)N[C@@H]1CC[C@@H](Oc2ccc(C(C)(C)C(=O)NS(C)(=O)=O)cc2-c2cccc(F)c2C2CCC2)C1 [Example E1, N-{(1R,3R)-3-[(2′-cyclobutyl-3′-fluoro-5-{1-[(methanesulfonyl)amino]-2-methyl-1-oxopropan-2-yl}[1, 1′-biphenyl]-2-yl)oxy]cyclopentyl}-1,4,4-trimethyl-L-prolinamide] |
| 4.29 | 15.9 | 0.19 | 0.56 | – | – | – | – | CN1CC(C)(C)C[C@H]1C(=O)N[C@H]1C[C@H](Oc2ccc(C(=O)O)cc2-c2cccc(F)c2C2CCC2)C[C@H]1O (single isomer, unassigned) [Example K3, 2′-cyclobutyl-3′-fluoro-6-({(1ξ,3ξ,4ξ)-3-hydroxy-4-[(1,4,4-trimethyl-L-prolyl)amino]cyclopentyl}oxy)[1,1′-biphenyl]-3-carboxylic acid] |
| 14.9 | 8.43 | – | – | – | – | 0.41 | 0.74 | CN1CC(C)(C)C[C@H]1C(=O)N[C@@H]1CC[C@@H](Oc2ccc(-c3cn(C)nc3C(=O)O)cc2-c2cccc(F)c2C2CCC2)C1 [Example J1, 4-[2′-cyclobutyl-3′-fIuoro-6-({(1R,3R)-3-[(1,4,4-trimethyl -L-prolyl)amino]cyclopentyl}oxy)[1,1′-biphenyl]-3-yl]-1-methyl-1H-pyrazole-3-carboxylic acid] |
| 4.56 | 45.6 | 0.7 | 0.94 | – | – | – | – | CN1CC(C)(C)C[C@H]1C(=O)N[C@H]1C[C@H](Oc2ccc(CC(=O)O)cc2-c2cccc(F)c2C2CCC2)C[C@H]1O [Example K4, [2′-cyclobutyl-3′-fluoro-6-({(1S,3R,4S)-3-hydroxy-4-[(1,4,4-trimethyl-L-prolyl)amino]cyclopentyl}oxy)[1,1′-biphenyl]-3-yl]acetic acid] |
